# Source: PMC5974403, “The novel histone de acetylase 6 inhibitor, MPT0G211, ameliorates tau phosphorylation and cognitive deficits in an Alzheimer’s disease model” (Cell Death & Disease, 2018)
# Peptide text beside a SMILES is read from it. * marks the point of attachment. Cbz = O=C(OCc1ccccc1)*
# What was measured:
# SH-SY5Y cells [1] = test: Western blot of acetyl-α-tubulin and acetyl-histone, SH-SY5Y cells; format: cell-based, human; conditions: 0.1 to 1 μM, 24 h
# Protocol: (§1) Cell viabilities were determined by MTT assay. The results represent the mean ± SEM of three independent experiments; *p < 0.05, **p < 0.01 and ***p < 0.001 compared with controls TEXT PRINTED IN THE PICTURE: (A) no label printed: M.W. 293.32
# (§2) Cells (1 × 10^6) were incubated for 10 min at 4 °C in lysis buffer (20 mM HEPES, pH 7.4, 2 mM EGTA, 50 mM β-glycerophosphate, 0.1% Triton X-100, 10% glycerol, 1 mM dithiothreitol, 1 μg/mL leupeptin, 5 μg/mL aprotinin, 1 mM phenylmethylsulfonyl fluoride, and 1 mM sodium orthovanadate), scraped from the plate, incubated on ice for 10 min, and centrifuged at 17,000 × g for 30 min at 4 °C. Protein samples (30 μg) were electrophoresed through sodium dodecyl sulfate-polyacrylamide gels (SDS-PAGE) and transferred onto a nitrocellulose membrane, which was then blocked by incubation for 30 min at room temperature with 5% fat-free milk in PBS. Immunoblotting was performed by overnight incubation at 4 °C with primary antibodies in PBS, followed by incubation for 1 h at room temperature with HRP-conjugated secondary antibodies. Bound antibodies were measured using ECL reagent (T-Pro Biotechnology, New Taipei City, Taiwan), and the membrane was placed on a photographic film. Cell lysates (30 μg) were incubated with antibodies (1 μg each) and protein A/G agarose beads overnight at 4 °C. The precipitated beads were washed three times with 1 mL of ice-cold cell lysis buffer, and bound immune complexes were separated using 8% SDS-PAGE, followed by immunoblotting using the indicated primary antibody.
# Neuro-2a cells [2] = test: Western blot of acetyl-α-tubulin and acetyl-histone, Neuro-2a cells; format: cell-based, mouse; conditions: 0.1 to 1 μM, 24 h
# Protocol: as §1, §2
# SH-SY5Y cells [3] = test: Western blot of tau phosphorylation and kinases in SH-SY5Y cells transfected with pCAX APP 695 and pRK5-EGFP-Tau P301L; format: cell-based, human; conditions: SH-SY5Y transfected, MG132 1 μM 30 min before MPT0G211 0.1 μM 24 h
# Protocol: (§3) Images represented magnification at ×100. b Cells were transfected with pCAX APP 695 for 24 h, harvested, and cell lysates were subjected to Western blotting. c, d SH-SY5Y and Neuro-2a cells were transfected with pCAX APP 695 and/or pRK5-EGFP-Tau P301L for 24 h. Cell lysates were prepared for western blot analysis of the indicated proteins. e, f Cells were transfected with pCAX APP 695 and pRK5-EGFP-Tau P301L for 24 h and were then incubated with or without MPT0G211 or ACY-1215 (0.1 μM) for another 24 h. Cell lysates were subjected to western blot analysis using the indicated antibodies. Results are presented as the mean ± SEM from three independent experiments. **p < 0.01, ***p < 0.001 compared with the control group; ^#p < 0.05, ^##p < 0.01 compared with the indicated groups
# (§4) Cell lysates were prepared for western blot analysis of the indicated proteins. Results are presented as the mean ± SEM. *p < 0.05, **p < 0.01, and ***p < 0.001 compared with the control group; ^#p < 0.05, ^##p < 0.01, ^###p < 0.001 compared with the indicated groups
# (§5) Cells were seeded 1 day before transfection. The plasmids pCAX FLAG APP and pRK5-EGFP-Tau P301L (1 μg each) and 1 μL of TurboFect transfection reagent were mixed for 20 min at room temperature, added to the cells, and the suspensions were incubated for 24 h at 37 °C in a humidified atmosphere containing 5% CO2.
# as §2
# Neuro-2a cells [4] = test: Western blot of tau phosphorylation and kinases in Neuro-2a cells transfected with pCAX APP 695 and pRK5-EGFP-Tau P301L; format: cell-based, mouse; conditions: Neuro-2a transfected, MG132 1 μM 30 min before MPT0G211 0.1 μM 24 h
# Protocol: as §3, §4, §5, §2
# SH-SY5Y cells [5] = test: Flow cytometry of sub-G1 (PI) and annexin V/PI in transfected SH-SY5Y cells; format: cell-based, human; conditions: hAPP + hTauP301L transfected SH-SY5Y, 0.1 μM, 24 h
# Protocol: The fractionation scheme used to separate different cellular pools of tau, and the western blot analysis of the effects of the compounds on tau pools generated using the fractionation scheme are presented. b, d SH-SY5Y cells were transfected for 24 h with pCAX APP 695 and pRK5-EGFP-Tau P301L, incubated with or without MPT0G211 or ACY-1215 (0.1 μM) for another 24 h, and then the cells were fixed and stained by propidium iodide (b) or annexin V/PI double staining (d) and analyzed by flow cytometry. c, e Percentages of the subG1 phase (c) or annexin V-positive cells (e) in response to drug treatment as explained in (b). Results are presented as the mean ± SEM. *p < 0.05 and **p < 0.01 compared with the control group; ^#p < 0.05 and ^##p < 0.01 compared with the indicated groups TEXT PRINTED IN THE PICTURE: (B) MPT0G211: hAPP + hTauP301L: SubG1 10.91% | (B) ACY-1215: hAPP + hTauP301L: SubG1 15.40% | (D) MPT0G211: hAPP + hTauP301L: 9.56%; hAPP + hTauP301L: 11.26% | (D) ACY-1215: hAPP + hTauP301L: 9.28%; hAPP + hTauP301L: 11.25%
# After drug treatment, the cells were collected, washed with cold phosphate-buffered saline (PBS), and fixed with 75% alcohol overnight at −20 °C. After centrifugation, the fixed cells were washed with cold PBS and resuspended in DNA extraction buffer (0.2 M Na2HPO4, 0.1 M citric acid, pH 7.8) for 30 min. The cells were centrifuged and incubated with propidium iodide (PI) (0.1% Triton X-100, 100 μg/mL RNase A, and 80 μg/mL PI in PBS) for 30 min. The cell cycle was analyzed using a FACScan Flow cytometer and Cell Quest software (Becton Dickinson, Mountain View, CA, USA).
# [6] = Fig. 3d picture, quadrant not identified
SMILES,acetylation of histones (SH-SY5Y cells [1]),acetylation of α-tubulin (SH-SY5Y cells [1]),acetylation of histones (Neuro-2a cells [2]),acetylation of α-tubulin (Neuro-2a cells [2]),effect on MPT0G211-induced inhibition of p-tau at Ser396 (SH-SY5Y cells [3]),effect on MPT0G211-induced inhibition of p-tau at Ser396 (Neuro-2a cells [4]),"SubG1 population (SH-SY5Y cells [5]; PI staining, Fig. 3b picture) [%]","annexin V/PI double staining, quadrant percentage (SH-SY5Y cells [5]; [6]) [%]","annexin V/PI double staining, quadrant percentage (first value) (SH-SY5Y cells [5]; [6]) [%]"
O=C(CCCCCCC(=O)Nc1ccccc1)NO [SAHA],significantly increased,significantly increased,significantly increased,significantly increased,–,–,–,–,–
"CC(C)C[C@@H](C=O)NC(=O)[C@H](CC(C)C)NC(=O)[C@H](CC(C)C)NC(=O)OCc1ccccc1 [MG132, reference compound] (Cbz-Leu-Leu-Leu-aldehyde)",–,–,–,–,significantly reversed,significantly reversed,–,–,–
"O=C(CCCCCCNC(=O)c1cnc(N(c2ccccc2)c2ccccc2)nc1)NO [ACY-1215, reference compound]",–,less acetylation of α-tubulin,–,less acetylation of α-tubulin,–,–,15.40,11.25,9.28
